Results published in patent publication US20260078130A1, “NAMPT MODULATORS, PREPARATIONS, AND USES THEREOF” (SIRONAX LTD., priority 2022, published 2026).
Where two headings read alike, the source gives them in different places.

What was measured:
[1] = biological target: T1, human enzyme NAMPT (full length) (Homo sapiens, UniProt P43490); assay: NMN fluorescence biochemical assay (stimulation of NMN synthesis by NAMPT); conditions: for EC50: concentration giving half-maximal activation, read-out: Enzymatic EC50; for Enzymatic Emax: fold change of maximal activation compared to DMSO
T1 construct: human enzyme NAMPT (full length)
Procedure, shortened: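 Full-length human NAMPT (100 nM) was preincubated 15 min at 37 °C with compound in 50 mM Tris-HCl pH 7.5, 10 mM MgCl2, 2 mM DTT, then reacted 1 h at 37 °C with 50 μM NAM, 100 μM PRPP, 4 mM ATP (stated solution concentrations). NMN was derivatised with acetophenone/KOH then formic acid and read at Ex/Em 382/445 nm; EC50 and Emax (fold over DMSO) reported.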

[2] = system: endogenous NAMPT in U2OS cells; assay: Cellular NAD+ modulation assay (NAD/NADH-Glo, U2OS cells); format: cell-based; conditions: Homo sapiens; for maximal fold induction: read-out: Cellular Emax
Procedure, shortened: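 NAD/NADH-Glo luminescence quantified NAD+ after acid treatment (60 °C, 15 min) and neutralization of DTAB lysates. Beforehand, U2OS cells seeded 16 h earlier received compound concentration series for 24 h at 37 °C. Values given as half-maximal activation concentration (EC50) and maximal fold change versus DMSO (Emax).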

[3] = NMN fluorescence assay, purified human NAMPT 100 nM
[4] = 24 hours incubation, cellular NAD+
[5] = NMN synthesis by purified human NAMPT (100 nM)
[6] = 24 hours incubation with compound

T1 sequence (P43490 whole entry): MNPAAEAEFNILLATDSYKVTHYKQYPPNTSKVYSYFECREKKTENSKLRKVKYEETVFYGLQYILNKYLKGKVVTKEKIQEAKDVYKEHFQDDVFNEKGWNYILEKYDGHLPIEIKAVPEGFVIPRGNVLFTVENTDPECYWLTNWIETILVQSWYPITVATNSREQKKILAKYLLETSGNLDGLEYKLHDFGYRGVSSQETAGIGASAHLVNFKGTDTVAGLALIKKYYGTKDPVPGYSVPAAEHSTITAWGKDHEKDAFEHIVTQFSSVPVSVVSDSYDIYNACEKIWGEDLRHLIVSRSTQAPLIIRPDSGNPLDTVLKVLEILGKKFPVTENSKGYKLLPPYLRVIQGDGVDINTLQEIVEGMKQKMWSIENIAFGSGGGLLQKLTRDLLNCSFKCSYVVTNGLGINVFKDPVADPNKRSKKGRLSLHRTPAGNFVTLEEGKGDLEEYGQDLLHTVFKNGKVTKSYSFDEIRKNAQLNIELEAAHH

Structure (SMILES)	EC50 [1, 3] [nM]	Enzymatic Emax [1]	EC50 [2, 4] [nM]	EC50 [1, 5] [nM]	EC50 [2, 6] [nM]	maximal fold induction [2, 4]	maximal fold induction [2, 6]
O=C1c2ccccc2C(=O)N1Cc1ccc(O)cc1 [Compound 11, 2-(4-hydroxybenzyl)isoindoline-1,3-dione]		B (3≥B>2)		≥ 5000	5000 to 50000		1.2 to 1.5
O=C1c2cnccc2CN1Cc1ccc(O)cc1 [Compound 42, 2-(4-hydroxybenzyl)-1,2-dihydro-3H-pyrrolo[3,4-c]pyridin-3-one]		A (A>3)		≥ 5000	5000 to 50000		> 1.5
O=c1[nH]c2ccc(Cn3ccc4ccccc4c3=O)cc2o1 [Compound 4, 6-((1-oxoisoquinolin-2(1H)-yl)methyl)benzo[d]oxazol-2(3H)-one]		B (3≥B>2)		≥ 5000	5000 to 50000		1.2 to 1.5
Cn1ncc(Cl)c1CC1c2cccc(Cl)c2C(=O)N1Cc1ccc2[nH]nnc2c1 (centres unmarked) [Compound 336, 2-((1H-benzo[d][1,2,3]triazol-5-yl)methyl)-7-chloro-3-((4-chloro-1-methyl-1H-pyrazol-5-yl)methyl)isoindolin-1-one]	< 500	A (A>3)	< 500			> 1.5	
Cc1ccnc(C#N)c1CC1c2cc(C#N)ccc2C(=O)N1Cc1ccc2[nH]nnc2c1 (centres unmarked) [Compound 359, 2-((1H-benzo[d][1,2,3]triazol-5-yl)methyl)-3-((2-cyano-4-methylpyridin-3-yl)methyl)-1-oxoisoindoline-5-carbonitrile]	< 500	B (3≥B>2)	500 to 5000			> 1.5	
O=C1c2ccccc2C(Cc2cccnc2)N1Cc1ccc2[nH]c(=O)oc2c1 (centres unmarked) [Compound 137, 6-((1-oxo-3-(pyridin-3-ylmethyl)isoindolin-2-yl)methyl)benzo[d]oxazol-2(3H)-one]		B (3≥B>2)		500 to 5000	< 500		> 1.5
CC(=O)Nc1ccc(CN2C(=O)c3ccccc3C2C)cc1 (centres unmarked) [Compound 82, N-(4-((1-methyl-3-oxoisoindolin-2-yl)methyl)phenyl)acetamide]		B (3≥B>2)		≥ 5000	500 to 5000		1.2 to 1.5
O=C1c2ccccc2C(Cc2ncccc2Br)N1CC1CCc2[nH]c(=O)oc2C1 (centres unmarked) [Compound 400, 6-((1-((3-bromopyridin-2-yl)methyl)-3-oxoisoindolin-2-yl)methyl)-4,5,6,7-tetrahydrobenzo[d]oxazol-2(3H)-one]	500 to 5000	B (3≥B>2)	500 to 5000			> 1.5	
O=c1c2ccccc2ccn1Cc1ccc2[nH]nnc2c1 [Compound 7, 2-((1H-benzo[d][1,2,3]triazol-5-yl)methyl)isoquinolin-1(2H)-one]		B (3≥B>2)		≥ 5000	5000 to 50000		1.2 to 1.5
O=C1c2ccccc2C(Cc2ncccc2Br)N1C/C(F)=C/c1c[nH]nn1 (centres unmarked) [Compound 314, (Z)-3-((3-bromopyridin-2-yl)methyl)-2-(2-fluoro-3-(1H-1,2,3-triazol-4-yl)allyl)isoindolin-1-one]		B (3≥B>2)		< 500	< 500		> 1.5
COCCn1cc(Cl)c(CC2c3ccccc3C(=O)N2Cc2ccc3[nH]c(=O)oc3c2)n1 (centres unmarked) [Compound 277, 6-((1-((4-chloro-1-(2-methoxyethyl)-1H-pyrazol-3-yl)methyl)-3-oxoisoindolin-2-yl)methyl) benzo[d]oxazol-2(3H)-one]		A (A>3)		500 to 5000	< 500		> 1.5
O=C1NCC2(CC(CN3C(=O)c4ccccc4C3Cc3ncccc3Br)C2)O1 (centres unmarked) [Compound 270, 2-((1-((3-bromopyridin-2-yl)methyl)-3-oxoisoindolin-2-yl)methyl)-5-oxa-7-azaspiro[3.4]octan-6-one]		A (A>3)		< 500	< 500		1.2 to 1.5
Cc1ccnc(C#N)c1CC1c2cc(C3CC3)ccc2C(=O)N1Cc1ccc2[nH]nnc2c1 (centres unmarked) [Compound 360, 3-((2-((1H-benzo[d][1,2,3]triazol-5-yl)methyl)-6-cyclopropyl-3-oxoisoindolin-1-yl)methyl)-4-methylpicolinonitrile]	< 500	B (3≥B>2)	< 500			> 1.5	
COc1ccc2c(c1)CN(Cc1ccc3[nH]c(=O)oc3c1)C2=O [Compound 49, 6-((5-methoxy-1-oxoisoindolin-2-yl)methyl)benzo[d]oxazol-2(3H)-one]		B (3≥B>2)		≥ 5000	5000 to 50000		> 1.5
O=C1c2ccc(N3CCCC3)cc2CN1Cc1ccc(O)cc1 [Compound 298, 2-(4-hydroxybenzyl)-5-(pyrrolidin-1-yl)isoindolin-1-one]		C (2≥C)		500 to 5000	500 to 5000		1.2 to 1.5

The next lines start with results.

EC50 [1, 3] [nM]	Enzymatic Emax [1]	EC50 [2, 4] [nM]	EC50 [1, 5] [nM]	EC50 [2, 6] [nM]	Structure (SMILES)	maximal fold induction [2, 4]	maximal fold induction [2, 6]
500 to 5000	A (A>3)	< 500			Cn1nc(F)c(Cl)c1CC1c2ccccc2C(=O)N1CC1CC2(CNC(=O)O2)C1 (centres unmarked) [Compound 547, 2-((1-((4-chloro-3-fluoro-1-methyl-1H-pyrazol-5-yl)methyl)-3-oxoisoindolin-2-yl)methyl)-5-oxa-7-azaspiro[3.4]octan-6-one]	> 1.5	
< 500	A (A>3)	500 to 5000			CN1CC(c2nn(C)c(CC3c4ccccc4C(=O)N3CC3CC4(CNC(=O)O4)C3)c2Cl)C1 (centres unmarked) [Compound 509, 2-((1-((4-chloro-1-methyl-3-(1-methylazetidin-3-yl)-1H-pyrazol-5-yl)methyl)-3-oxoisoindolin-2-yl)methyl)-5-oxa-7-azaspiro[3.4]octan-6-one]	> 1.5	
< 500	A (A>3)	< 500			Cn1ncc(Cl)c1CC1c2ccccc2C(C)(C)N1CC1CC2(CNC(=O)O2)C1 (centres unmarked) [Compound 565, 2-((3-((4-chloro-1-methyl-1H-pyrazol-5-yl)methyl)-1,1-dimethylisoindolin-2-yl)methyl)-5-oxa-7-azaspiro[3.4]octan-6-one]	> 1.5	
< 500	B (3≥B>2)	< 500			C/C(=C\c1c[nH]nn1)CN1C(=O)c2ccccc2C1Cc1ncccc1Br (centres unmarked) [Compound 416, (E)-3-((3-bromopyridin-2-yl)methyl)-2-(2-methyl-3-(1H-1,2,3-triazol-4-yl)allyl)isoindolin-1-one]	> 1.5	
500 to 5000	B (3≥B>2)	500 to 5000			Cn1ncc(Cl)c1CC1c2cc(C3COC3)ccc2C(=O)N1CC1CC2(CNC(=O)O2)C1 (centres unmarked) [Compound 473, 2-((3-((4-chloro-1-methyl-1H-pyrazol-5-yl)methyl)-5-(oxetan-3-yl)-1-oxoisoindolin-2-yl)methyl)-5-oxa-7-azaspiro[3.4]octan-6-one]	> 1.5	
< 500	A (A>3)	< 500			Cn1ncc(Cl)c1CC1c2cc(Br)ccc2C(=O)N1Cc1ccc2[nH]c(=O)oc2c1 (centres unmarked) [Compound 431, 6-((5-bromo-3-((4-chloro-1-methyl-1H-pyrazol-5-yl)methyl)-1-oxoisoindolin-2-yl)methyl)benzo[d]oxazol-2(3H)-one]	> 1.5	
< 500	A (A>3)	500 to 5000			Cn1ncc(Cl)c1CC1c2ccccc2C(C)(C)N1Cc1ccc2[nH]c(=O)oc2c1 (centres unmarked) [Compound 613, 6-((3-((4-chloro-1-methyl-1H-pyrazol-5-yl)methyl)-1,1-dimethylisoindolin-2-yl)methyl)benzo[d]oxazol-2(3H)-one]	1.2 to 1.5	
500 to 5000	A (A>3)	< 500			Cn1ncc(Cl)c1CC1c2ccccc2C(C)(C)N1C/C=C/c1c[nH]nn1 (centres unmarked) [Compound 606, (E)-2-(3-(1H-1,2,3-triazol-4-yl)allyl)-3-((4-chloro-1-methyl-1H-pyrazol-5-yl)methyl)-1,1-dimethylisoindoline]	> 1.5	
≥ 5000	B (3≥B>2)	500 to 5000			COc1ccc(CN2C(=O)c3ccccc3C2Cc2c(C)ccnc2C#N)cn1 (centres unmarked) [Compound 588, 3-((2-((6-methoxypyridin-3-yl)methyl)-3-oxoisoindolin-1-yl)methyl)-4-methylpicolinonitrile]	> 1.5	
≥ 5000	B (3≥B>2)	500 to 5000			Cn1ncc(Cl)c1CC1c2ccccc2C(=O)N1Cc1ccc(O)nc1 (centres unmarked) [Compound 578, 3-[(4-chloro-2-methyl-pyrazol-3-yl)methyl]-2-[(6-hydroxy-3-pyridyl)methyl]isoindolin-1-one]	1.2 to 1.5	
500 to 5000	B (3≥B>2)	< 500			Cn1nc(C#N)c(Cl)c1CC1c2ccccc2C(=O)N1CC1CC2(CNC(=O)O2)C1 (centres unmarked) [Compound 495, 4-chloro-1-methyl-5-((3-oxo-2-((6-oxo-5-oxa-7-azaspiro[3.4]octan-2-yl)methyl)isoindolin-1-yl)methyl)-1H-pyrazole-3-carbonitrile]	> 1.5	
